The source of these data is patent US9988400B2 (Genentech, Inc., priority 2013, dated 2018).

Structures are written as SMILES. pEC50: −log10 of the molar value.

The assay deals with T1, HEK cells stably transfected with tetracycline inducible hNR1 and hNR2A (Homo sapiens, UniProt Q05586+Q12879).
T1 construct: expressed in transfected cells; host or cells: HEK cells, stably transfected, tetracycline/doxycycline inducible
Put plainly: Assay 1: Cell-Based Assay, cytosolic calcium response to positive allosteric modulators (with 30 μM glycine and 300 nM L-glutamate, EC30). As to conditions: Table 3; cytosolic calcium response, with 30 μM glycine and 300 nM L-glutamate (EC30); — = no plateau was reached. In outline: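 Cells induced 24 h with 7.5 μg mL^−1 doxycycline plus 500 μM (+)-ketamine, loaded 60 min at 37 °C with calcium dye in Mg-free HBSS (1.8 mM Ca, probenecid, 10 μM (+)-ketamine, pH 7.15). Peak RFU over 5 min after compound addition, scaled to 100 μM L-glutamate (100%) and 0 μM (0%); four-parameter Hill fit for EC50, max % if no plateau.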

T1 sequence (Q12879 23-1464, other chains not shown): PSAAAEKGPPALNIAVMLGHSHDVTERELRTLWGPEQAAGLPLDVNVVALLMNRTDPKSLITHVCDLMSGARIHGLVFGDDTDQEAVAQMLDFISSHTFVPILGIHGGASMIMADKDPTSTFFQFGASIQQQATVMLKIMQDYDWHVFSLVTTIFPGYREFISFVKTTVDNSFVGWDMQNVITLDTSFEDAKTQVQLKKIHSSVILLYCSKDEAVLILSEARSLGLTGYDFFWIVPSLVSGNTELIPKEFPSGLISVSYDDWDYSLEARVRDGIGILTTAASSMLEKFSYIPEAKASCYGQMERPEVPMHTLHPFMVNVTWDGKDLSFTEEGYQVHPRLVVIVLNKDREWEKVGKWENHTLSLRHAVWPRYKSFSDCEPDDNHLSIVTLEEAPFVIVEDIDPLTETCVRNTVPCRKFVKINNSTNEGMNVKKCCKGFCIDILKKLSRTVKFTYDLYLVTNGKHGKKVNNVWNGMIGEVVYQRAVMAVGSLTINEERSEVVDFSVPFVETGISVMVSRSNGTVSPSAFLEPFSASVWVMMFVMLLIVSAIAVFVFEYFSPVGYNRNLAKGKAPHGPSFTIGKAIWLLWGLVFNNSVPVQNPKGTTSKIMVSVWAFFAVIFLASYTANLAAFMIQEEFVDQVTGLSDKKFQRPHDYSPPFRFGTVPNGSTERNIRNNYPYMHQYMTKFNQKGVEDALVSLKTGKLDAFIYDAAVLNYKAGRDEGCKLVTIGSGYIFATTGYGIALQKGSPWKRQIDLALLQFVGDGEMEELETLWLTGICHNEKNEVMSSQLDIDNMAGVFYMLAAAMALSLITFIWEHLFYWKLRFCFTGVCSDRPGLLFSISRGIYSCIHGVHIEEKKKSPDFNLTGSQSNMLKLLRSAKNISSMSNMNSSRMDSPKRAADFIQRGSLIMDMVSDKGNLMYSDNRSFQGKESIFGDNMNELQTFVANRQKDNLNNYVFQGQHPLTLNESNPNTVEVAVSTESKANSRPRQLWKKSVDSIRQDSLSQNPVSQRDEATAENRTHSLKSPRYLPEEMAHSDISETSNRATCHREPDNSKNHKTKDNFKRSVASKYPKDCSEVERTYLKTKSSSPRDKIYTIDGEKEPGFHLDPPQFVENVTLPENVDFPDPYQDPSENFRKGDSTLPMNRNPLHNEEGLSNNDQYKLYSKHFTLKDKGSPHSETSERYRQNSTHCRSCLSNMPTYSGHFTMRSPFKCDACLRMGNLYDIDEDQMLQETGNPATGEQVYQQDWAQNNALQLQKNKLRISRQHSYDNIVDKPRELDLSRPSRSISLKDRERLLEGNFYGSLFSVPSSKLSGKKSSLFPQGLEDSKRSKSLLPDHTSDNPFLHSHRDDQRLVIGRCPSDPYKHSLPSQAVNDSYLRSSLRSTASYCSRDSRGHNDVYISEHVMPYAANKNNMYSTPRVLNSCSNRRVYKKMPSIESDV

For the compound `Cc1sc2nc(Cn3nc(Cl)cc3C(F)(F)F)cc(=O)n2c1C(C)C#N` (stereo not shown) [compound 252, 2-[7-[[3-chloro-5-(trifluoromethyl)pyrazol-1-yl]methyl]-2-methyl-5-oxo-thiazolo[3,2-a]pyrimidin-3-yl]propanenitrile], the pEC50 (usually the EC50 on a negative log10 scale, so that one unit is a factor of ten) was 5.24.
The same measure for `CC1CC1c1c(C(F)(F)F)sc2nc(Cc3cccc(C#N)c3F)cc(=O)n12` (stereo not shown) [compound 253, 2-fluoro-3-[[3-[2-methylcyclopropyl]-5-oxo-2-(trifluoromethyl)thiazolo[3,2-a]pyrimidin-7-yl]methyl]benzonitrile]: 5.00; for `O=c1cc(Cn2nc(C(F)(F)F)cc2Cl)nc2sc(C(F)(F)F)c(N3CC(F)C3)n12` [compound 254, 7-[[5-chloro-3-(trifluoromethyl)pyrazol-1-yl]methyl]-3-(3-fluoroazetidin-1-yl)-2-(trifluoromethyl)thiazolo[3,2-a]pyrimidin-5-one]: 5.86.
The value for `O=c1cc(Cn2nc(C(F)(F)F)cc2Cl)nc2sc(C(F)(F)F)c(-c3cncc(Cl)c3)n12` [compound 255, 3-(5-chloro-3-pyridyl)-7-[[5-chloro-3-(trifluoromethyl)pyrazol-1-yl]methyl]-2-(trifluoromethyl)thiazolo[3,2-a]pyrimidin-5-one] was 5.10.
The value for `CCNC(=O)c1c(C(F)(F)F)sc2nc(Cn3nc(Cl)cc3Cl)cc(=O)n12` [compound 256, 7-[(3,5-dichloropyrazol-1-yl)methyl]-N-ethyl-5-oxo-2-(trifluoromethyl)thiazolo[3,2-a]pyrimidine-3-carboxamide] was 6.21; that for `CC(=O)c1c(C(F)(F)F)sc2nc(Cc3cccc(C#N)c3F)cc(=O)n12` [compound 257, 3-[[3-acetyl-5-oxo-2-(trifluoromethyl)thiazolo[3,2-a]pyrimidin-7-yl]methyl]-2-fluoro-benzonitrile] was 4.69.
For the compound `CCNC(=O)c1c(C(F)F)sc2nc(Cn3nc(C(F)(F)F)cc3Cl)cc(=O)n12` [compound 258, 7-[[5-Chloro-3-(trifluoromethyl)pyrazol-1-yl]methyl]-2-(difluoromethyl)-N-ethyl-5-oxo-thiazolo[3,2-a]pyrimidine-3-carboxamide], the pEC50 is 6.64.
With `CCNC(=O)c1c(C(F)F)sc2nc(Cn3nc(Cl)cc3C(F)(F)F)cc(=O)n12` [compound 259, 7-[[3-chloro-5-(trifluoromethyl)pyrazol-1-yl]methyl]-2-(difluoromethyl)-N-ethyl-5-oxo-thiazolo[3,2-a]pyrimidine-3-carboxamide], the pEC50 is 6.13.
The value for `CCN(Cc1cc(=O)n2c(/C=C\C#N)c(C)sc2n1)c1ccc(F)cc1` [compound 260, (Z)-3-[7-[(N-ethyl-4-fluoro-anilino)methyl]-2-methyl-5-oxo-thiazolo[3,2-a]pyrimidin-3-yl]prop-2-enenitrile] was 5.61; that for `CCN(Cc1cc(=O)n2c(/C=C/C(N)=O)c(C)sc2n1)c1ccc(F)cc1` [compound 261, (E)-3-[7-[(N-ethyl-4-fluoro-anilino)methyl]-2-methyl-5-oxo-thiazolo[3,2-a]pyrimidin-3-yl]prop-2-enamide] was 5.81; that for `Cc1sc2nc(Cn3nc(C(F)(F)F)cc3Cl)cc(=O)n2c1/C=C/C#N` [compound 262, (E)-3-[7-[[5-chloro-3-(trifluoromethyl)pyrazol-1-yl]methyl]-2-methyl-5-oxo-thiazolo[3,2-a]pyrimidin-3-yl]prop-2-enenitrile] was 5.95.
The same measure for `Cc1sc2nc(Cn3nc(C(F)(F)F)cc3Cl)cc(=O)n2c1/C=C\C#N` [compound 263, (Z)-3-[7-[[5-chloro-3-(trifluoromethyl)pyrazol-1-yl]methyl]-2-methyl-5-oxo-thiazolo[3,2-a]pyrimidin-3-yl]prop-2-enenitrile]: 6.30.
The value for `Cc1sc2nc(Cn3nc(C(F)(F)F)cc3Cl)cc(=O)n2c1/C=C/C(N)=O` [compound 264, (E)-3-[7-[[5-chloro-3-(trifluoromethyl)pyrazol-1-yl]methyl]-2-methyl-5-oxo-thiazolo[3,2-a]pyrimidin-3-yl]prop-2-enamide] was 5.29; that for `CCNC(=O)c1c(C)sc2nc(Cn3nc(C(F)(F)F)cc3CC(C)C)cc(=O)n12` [compound 265, N-ethyl-7-[[5-isobutyl-3-(trifluoromethyl)pyrazol-1-yl]methyl]-2-methyl-5-oxo-thiazolo[3,2-a]pyrimidine-3-carboxamide] was 5.32.
`N#CC1CC1c1c(Cl)sc2nc(Cn3nc(C(F)(F)F)cc3Cl)cc(=O)n12` (stereo not shown) [compound 267]: the negative-log EC50 (pEC50) is 6.80.
Regarding `N#CC1CC1c1c(Cl)sc2nc(Cn3nc(Cl)cc3C(F)(F)F)cc(=O)n12` (stereo not shown) [compound 268, 2-[2-chloro-7-[[3-chloro-5-(trifluoromethyl)pyrazol-1-yl]methyl]-5-oxo-thiazolo[3,2-a]pyrimidin-3-yl]cyclopropanecarbonitrile], the pEC50 was 6.74.
As to `Cc1sc2nc(Cc3nn(C)cc3Cl)cc(=O)n2c1C1CC1C#N` (stereo not shown) [compound 271, 2-[7-[(4-chloro-1-methyl-pyrazol-3-yl)methyl]-2-methyl-5-oxo-thiazolo[3,2-a]pyrimidin-3-yl]cyclopropanecarbonitrile], the negative-log EC50 (pEC50) is 5.45.
The same measure for `Cc1sc2nc(Cc3nc(C(F)(F)F)cn3C)cc(=O)n2c1C1CC1C#N` (stereo not shown) [compound 278, 2-[2-methyl-7-[[1-methyl-4-(trifluoromethyl)imidazol-2-yl]methyl]-5-oxo-thiazolo[3,2-a]pyrimidin-3-yl]cyclopropanecarbonitrile]: 4.97; for `CCN(Cc1cc(=O)n2c(/C=C/C#N)c(C)sc2n1)c1ccc(F)cc1` [compound 279, (E)-3-[7-[(N-ethyl-4-fluoro-anilino)methyl]-2-methyl-5-oxo-thiazolo[3,2-a]pyrimidin-3-yl]prop-2-enenitrile]: 5.74.
